Test results taken from US6211214A, “Biphenyl ether oxazolines and their use as pest-control agents” (Bayer Aktiengesellschaft, priority 1995, dated 2001).
Where two headings read alike, the source gives them in different places.

Assay: log p (partition coefficient octanol/water, determined experimentally from reversed phase HPLC)
Format: physicochemical
Conditions: for chromatographic logP: reversed phase hplc
Source text: [log p=logarithm of the partition coefficient p of the substance between the solvents octanol and water, determined experimentally from reversed phase HPLC]

| SMILES | chromatographic logP (A isomer) | chromatographic logP (B isomer) | other results |
| --- | --- | --- | --- |
| CON=C(COc1ccc(-c2ccc(C3COC(c4c(F)cccc4F)=N3)cc2)cc1)c1cccc(Cl)c1 (stereo not drawn) [Example 115] | 5.52 | 5.19 | – |
| CON=C(c1cccc(C(F)(F)F)c1)C(C)Oc1ccc(-c2ccc(C3COC(c4c(F)cccc4F)=N3)cc2)cc1 (stereo not drawn) [Example 106] | – | – | chromatographic logP: 5.5 |
| C=CCON=C(C)COc1ccc(-c2ccc(C3COC(c4c(F)cccc4Cl)=N3)cc2)cc1 (stereo not drawn) [Example 125] | 5.04 | 5.11 | – |
| CON=C(COc1ccc(-c2ccc(C3COC(c4c(F)cccc4F)=N3)cc2)cc1)C1(Cl)CC1 (stereo not drawn) [Example 55] | 5.09 | 4.78 | – |
| CC(=NOC(C)C)C(C)Oc1ccc(-c2ccc(C3COC(c4c(F)cccc4F)=N3)cc2)cc1Cl (stereo not drawn) [Example 146] | 5.87 | 6 | – |
| CCON=C(C)C(C)Oc1ccc(-c2ccc(C3COC(c4c(F)cccc4Cl)=N3)cc2)cc1 (stereo not drawn) [Example 62] | 5.31 | 5.42 | – |
| CCOC(COc1ccc(-c2ccc(C3COC(c4c(F)cccc4F)=N3)cc2)cc1)OCC (stereo not drawn) [Example 43] | – | – | chromatographic logP: 4.44 |
| CCON=C(COc1ccc(-c2ccc(C3COC(c4c(F)cccc4F)=N3)cc2)cc1)C1(Cl)CC1 (stereo not drawn) [Example 57] | 5.49 | 4.85 | – |
| CON=C(C)COc1ccc(-c2ccc(C3COC(c4c(F)cccc4F)=N3)cc2)cc1Cl (stereo not drawn) [Example 86] | 4.79 | 4.7 | – |
| CC(=NO)C(C)(C)Oc1ccc(-c2ccc(C3COC(c4c(F)cccc4F)=N3)cc2)cc1 (stereo not drawn) [Example 167] | 3.82 | 3.39 | – |
| CON=C(COc1ccc(-c2ccc(C3COC(c4c(F)cccc4F)=N3)cc2)cc1)c1ccc(OC)cc1 (stereo not drawn) [Example 149] | 4.7 | 4.91 | – |
| CCON=C(COc1ccc(-c2ccc(C3COC(c4c(F)cccc4F)=N3)cc2)cc1)c1cccc(Cl)c1 (stereo not drawn) [Example 116] | 5.89 | 5.54 | – |
| CON=C(COc1ccc(-c2ccc(C3COC(c4c(F)cccc4F)=N3)cc2)cc1)c1ccc(C)cc1 (stereo not drawn) [Example 133] | 5.07 | 5.35 | – |
| CC(=NOC(C)C)C(C)Oc1ccc(-c2ccc(C3COC(c4ccccc4Cl)=N3)cc2)cc1Cl (stereo not drawn) [Example 145] | 6.3 | 6.44 | – |
| CCOC(=O)C(C)Oc1ccc(-c2ccc(C3COC(c4c(F)cccc4F)=N3)cc2)cc1 (stereo not drawn) [Example 12] | – | – | log p: 3.80 |
| CCON=C(C)C(C)Oc1ccc(-c2ccc(C3COC(c4ccccc4Cl)=N3)cc2)cc1 (single isomer, unassigned) [Example 85] | – | – | chromatographic logP: 5.4 |
| CON=C(COc1ccc(-c2ccc(C3COC(c4c(F)cccc4F)=N3)cc2)cc1)c1cc(Cl)ccc1Cl (stereo not drawn) [Example 191] | 5.62 | 5.44 | – |
| CON=C(COc1ccc(-c2ccc(C3COC(c4c(F)cccc4F)=N3)cc2)cc1)c1cccc(C(F)(F)F)c1 (stereo not drawn) [Example 121] | 5.8 | 4.49 | – |
| CCON=C(CC)COc1ccc(-c2ccc(C3COC(c4c(F)cccc4F)=N3)cc2)cc1 (stereo not drawn) [Example 66] | 4.98 | 4.9 | – |
| CCON=C(COc1ccc(-c2ccc(C3COC(c4c(F)cccc4F)=N3)cc2)cc1)c1ccc(C)c(C)c1 (stereo not drawn) [Example 190] | 5.94 | 5.62 | – |
| CON=C(c1ccccc1F)C(C)Oc1ccc(-c2ccc(C3COC(c4c(F)cccc4F)=N3)cc2)cc1 (stereo not drawn) [Example 108] | – | – | chromatographic logP: 5.01 |
| CC(=O)C(C)Oc1ccc(-c2ccc(C3COC(c4c(F)cccc4F)=N3)cc2)cc1Cl (stereo not drawn) [Example 101] | – | – | chromatographic logP: 4.15 |
| C=CCON=C(C)C(C)Oc1ccc(-c2ccc(C3COC(c4c(F)cccc4Cl)=N3)cc2)cc1 (stereo not drawn) [Example 120] | 5.7 | 5.81 | – |

| SMILES | chromatographic logP (A isomer) | chromatographic logP (B isomer) | other results |
| --- | --- | --- | --- |
| CC(COc1ccc(-c2ccc(C3COC(c4ccccc4Cl)=N3)cc2)cc1)=NOCc1ccccc1 (stereo not drawn) [Example 137] | 5.55 | 5.62 | – |
| C=CCON=C(C)C(C)Oc1ccc(-c2ccc(C3COC(c4ccccc4Cl)=N3)cc2)cc1 (stereo not drawn) [Example 143] | 5.45 | 5.57 | – |
| CCON=C(COc1ccc(-c2ccc(C3COC(c4c(F)cccc4F)=N3)cc2)cc1)c1cc(Cl)ccc1Cl (stereo not drawn) [Example 192] | 6 | 5.79 | – |
| CCON=C(COc1ccc(-c2ccc(C3COC(c4c(F)cccc4F)=N3)cc2)cc1)c1ccc(Cl)cc1 (stereo not drawn) [Example 131] | 5.61 | 5.54 | – |
| C=CCON=C(C)COc1ccc(-c2ccc(C3COC(c4c(F)cccc4F)=N3)cc2)cc1 (stereo not drawn) [Example 89] | 4.78 | 4.72 | – |
| CC(C#N)Oc1ccc(-c2ccc(C3COC(c4c(F)cccc4F)=N3)cc2)cc1Cl (stereo not drawn) [Example 95] | – | – | chromatographic logP: 4.06 |
| CON=C(C)C(C)(C)Oc1ccc(-c2ccc(C3COC(c4c(F)cccc4F)=N3)cc2)cc1 (stereo not drawn) [Example 100] | – | – | chromatographic logP: 5.14 |
| CCON=C(COc1ccc(-c2ccc(C3COC(c4c(F)cccc4F)=N3)cc2)cc1)c1ccc(Br)cc1 (stereo not drawn) [Example 119] | – | – | log p (A isomer): 6.03; log p (B isomer): 5.72 |
| CCON=C(COc1ccc(-c2ccc(C3COC(c4c(F)cccc4F)=N3)cc2)cc1)c1ccc(Br)cc1 (stereo not drawn) [Example 118] | 5.65 | 5.57 | – |
| CC(=O)C(C)(C)Oc1ccc(-c2ccc(C3COC(c4c(F)cccc4F)=N3)cc2)cc1Cl (stereo not drawn) [Example 153] | – | – | chromatographic logP: 4.61 |
| C=CCON=C(C)C(C)Oc1ccc(-c2ccc(C3COC(c4c(F)cccc4F)=N3)cc2)cc1Cl (stereo not drawn) [Example 147] | 5.49 | 5.58 | – |
| CCON=C(COc1ccc(-c2ccc(C3COC(c4c(F)cccc4F)=N3)cc2)cc1)c1ccc(CC(C)C)cc1 (stereo not drawn) [Example 155] | 6.7 | 6.36 | – |
| C=CCN(CC=C)C(=O)COc1ccc(-c2ccc(C3COC(c4c(F)cccc4F)=N3)cc2)cc1 (stereo not drawn) [Example 47] | – | – | chromatographic logP: 3.76 |
| CCCCC(Oc1ccc(-c2ccc(C3COC(c4c(F)cccc4F)=N3)cc2)cc1)C(=O)OCC (stereo not drawn) [Example 61] | – | – | chromatographic logP: 5.24 |
| CCON=C(COc1ccc(-c2ccc(C3COC(c4c(F)cccc4F)=N3)cc2)cc1)C(C)C (stereo not drawn) [Example 78] | 5.72 | 5.49 | – |
| CC(COc1ccc(-c2ccc(C3COC(c4c(F)cccc4F)=N3)cc2)cc1)=NOC(C)C (stereo not drawn) [Example 80] | 5.1 | 5.17 | – |
| O=C(COc1ccc(-c2ccc(C3COC(c4c(F)cccc4F)=N3)cc2)cc1)C1(Cl)CC1 (stereo not drawn) [Example 54] | – | – | chromatographic logP: 4.04 |
| CCON=C(C)COc1ccc(-c2ccc(C3COC(c4c(F)cccc4F)=N3)cc2)cc1 (stereo not drawn) [Example 25] | – | 4.76 | – |
| CCCC(C#N)Oc1ccc(-c2ccc(C3COC(c4c(F)cccc4F)=N3)cc2)cc1Cl (stereo not drawn) [Example 91] | – | – | chromatographic logP: 4.87 |
| CC(COc1ccc(-c2ccc(C3COC(c4c(F)cccc4Cl)=N3)cc2)cc1)=NOCc1ccccc1 (stereo not drawn) [Example 126] | 5.45 | 5.53 | – |
| CC(C)C(C#N)Oc1ccc(-c2ccc(C3COC(c4c(F)cccc4F)=N3)cc2)cc1 (stereo not drawn) [Example 17] | – | – | chromatographic logP: 4.45 |
| CCON=C(COc1ccc(-c2ccc(C3COC(c4c(F)cccc4F)=N3)cc2)cc1)c1ccc(C(F)F)cc1 (stereo not drawn) [Example 139] | 5.07 | 5.31 | – |
